From patent US20090318370A1, “NOVEL GLYCOCONJUGATED CHLORIN DERIVATIVES AND METHOD OF PRODUCING THE SAME” (REI Medical Co., Ltd., priority 2007, published 2009)

Columns and labels:
[1] = tested on: HeLa cells; test: Evaluation of phototoxicity: WST-8 cell viability after light exposure (16 J/cm^2, halogen lamp, 500 nm cut-off filter); type: cell-based; settings: light 16 J/cm^2
Procedure: HeLa cells were plated in a 96-well plate to give a concentration of 5×10^3 cells/well (medium volume: 100 μL), and the plate was incubated at 37° C. in 5% CO2 atmosphere for 24 hours. To each well was added 100 μL of a drug solution containing 2% dimethylsulfoxide to give a certain concentration. The plate was further incubated at 37° C. in 5% CO2 atmosphere for 24 hours. Then, the medium was discarded and the cells were washed twice with phosphate buffered saline (100 μL). To each well was added 100 μL of Dulbecco's modified Eagle's medium (DMEM) containing 10% fetal calf serum (FCS). The cells were then exposed to light (16 J/cm^2) from a 100 W halogen lamp equipped with a 500 nm cut-off filter and a water jacket. After that, the plate was further incubated at 37° C. in 5% CO2 for 24 hours. And the plate was subjected to WST-8 assay and cell viability rates were calculated as relative values to those obtained in the absence of drugs. The average values of the result from 6 replicate experiments for each drug were calculated.
The light dose was adjusted by controlling the irradiation time by using a power meter.
WST assay is one of the method to determine the activity of dehydrogenase of cells, in which tetrazolium salt (WST-8) is reduced dependently on the number of viable cells. The amount of the reduction was determined by absorption spectroscopy to provide the relative amount of viable cells.
Phototoxicity were determined for the chlorin derivatives or porphyrin derivatives which were prepared in the above Example and Comparative Example and obtained as production intermediates, and the compound from Reference Example at a drug concentration of 0.5 μM according to the above evaluation method.
For the compounds No. 6 to 9 and 14 to 16 shown in Table 1, phototoxicity was determined at a drug concentration of 0.09 μM according to the above evaluation method.

[2] = tested on: some cells; settings: non patent reference 2; cited from earlier work
[3] = tested on: HeLa cells; settings: non-patent reference 1; cited from earlier work
[4] = drug concentration 0.5 μM, FIG. 3
[5] = drug concentration 0.09 μM, FIG. 4

Compound	phototoxicity of acetyl-protected compound compared with No. 6, 7, 8, 9 respectively [1, 4]	effect of sugar linkage on phototoxicity [1, 5]	phototoxicity compared with commercially available TPPS (No. 14) [1, 4]	phototoxicity compared with non-glycoconjugated compound (No. 1, 2, 3, 4 respectively) [1, 4]	further results
CC(=O)OCC1OC(Sc2c(F)c(F)c(-c3c4nc(c(-c5c(F)c(F)c(SC6OC(COC(C)=O)C(OC(C)=O)C(OC(C)=O)C6OC(C)=O)c(F)c5F)c5ccc([n-]5)c(-c5c(F)c(F)c(SC6OC(COC(C)=O)C(OC(C)=O)C(OC(C)=O)C6OC(C)=O)c(F)c5F)c5nc(c(-c6c(F)c(F)c(SC7OC(COC(C)=O)C(OC(C)=O)C(OC(C)=O)C7OC(C)=O)c(F)c6F)c6ccc3[n-]6)C3CN(C)CC53)C=C4)c(F)c2F)C(OC(C)=O)C(OC(C)=O)C1OC(C)=O.[Pd+2] [compound 13, {5,10,15,20-tetrakis[4-(2,3,4,6-tetra-O-acetyl-β-D-glucopyranosylthio)-2,3,5,6-tetrafluorophenyl]-2,3-[methano(N-methyl)iminomethano]chlorinato}palladium (II)]	phototoxicity was disappeared				
CN1C[C@@H]2c3nc(c(-c4c(F)c(F)c(S[C@@H]5O[C@H](CO)[C@@H](O)[C@H](O)[C@H]5O)c(F)c4F)c4ccc([nH]4)c(-c4c(F)c(F)c(S[C@@H]5O[C@H](CO)[C@@H](O)[C@H](O)[C@H]5O)c(F)c4F)c4nc(c(-c5c(F)c(F)c(S[C@@H]6O[C@H](CO)[C@@H](O)[C@H](O)[C@H]6O)c(F)c5F)c5ccc([nH]5)c3-c3c(F)c(F)c(S[C@@H]5O[C@H](CO)[C@@H](O)[C@H](O)[C@H]5O)c(F)c3F)C=C4)[C@@H]2C1 [compound 8, 5,10,15,20-tetrakis[4-(β-D-glucopyranosylthio)-2,3,5,6-tetrafluorophenyl]-2,3-[methano(N-methyl)iminomethano]chlorin]		distinguished improvement of phototoxicity	higher phototoxicity	higher phototoxicity	phototoxicity compared with O-glycosylated chlorin derivative No. 15 [1, 5]: higher phototoxicity; phototoxicity compared with galactose-linked derivative No. 16 ([1]; drug concentration 0.09 μM, FIG. 5): higher phototoxicity; phototoxicity compared with No. 6, 7 and No. 15 ([1]; drug concentration 0.5 μM): no difference in phototoxicity; phototoxicity compared with O-glycosylated chlorin derivative No. 15 ([1]; drug concentration 0.5 μM): not any differences in phototoxicity
OC[C@H]1O[C@@H](Sc2c(F)c(F)c(-c3c4nc(c(-c5c(F)c(F)c(S[C@@H]6O[C@H](CO)[C@@H](O)[C@H](O)[C@H]6O)c(F)c5F)c5ccc([nH]5)c(-c5c(F)c(F)c(S[C@@H]6O[C@H](CO)[C@@H](O)[C@H](O)[C@H]6O)c(F)c5F)c5nc(c(-c6c(F)c(F)c(S[C@@H]7O[C@H](CO)[C@@H](O)[C@H](O)[C@H]7O)c(F)c6F)c6ccc3[nH]6)C=C5)C=C4)c(F)c2F)[C@H](O)[C@@H](O)[C@@H]1O [compound 6, 5,10,15,20-tetrakis[4-(β-D-glucopyranosylthio)-2,3,5,6-tetrafluorophenyl]porphyrin, reference compound]		did not result in any improvement effect of phototoxicity	higher phototoxicity	higher phototoxicity	
5,10,15,20-tetrakis[4-(2,3,4,6-tetra-O-acetyl-β-D-glucopyranosylthio)-2,3,5,6-tetrafluorophenyl]-2,3-[methano(N-methyl)iminomethano]chlorin [compound 12]	phototoxicity was disappeared				
OC[C@H]1OC(Sc2c(F)c(F)c(-c3c4nc(c(-c5c(F)c(F)c(SC6O[C@H](CO)[C@@H](O)[C@H](O)[C@H]6O)c(F)c5F)c5ccc([nH]5)c(-c5c(F)c(F)c(SC6O[C@H](CO)[C@@H](O)[C@H](O)[C@H]6O)c(F)c5F)c5nc(c(-c6c(F)c(F)c(SC7O[C@H](CO)[C@@H](O)[C@H](O)[C@H]7O)c(F)c6F)c6ccc3[nH]6)C=C5)C=C4)c(F)c2F)[C@H](O)[C@@H](O)[C@@H]1O (some centres unmarked) [5,10,15,20-tetrakis(4,1′-thio-glucosyl-2,3,5,6-tetrafluorophenyl)porphyrin]					cell death with irradiation of light [2]: cell death can be observed with irradiation of light
5,10,15,20-tetrakis[3-(β-D-glucopyranosyloxy)phenyl]chlorin [compound 15]			higher phototoxicity		cytotoxicity by irradiation with light [3]: show cytotoxicity by irradiation with light; cytotoxicity in the dark [3]: no cytotoxicity is found in the dark
CN1CC2c3nc(c(-c4c(F)c(F)c(S[C@@H]5O[C@H](CO)[C@H](O)[C@H](O)[C@H]5O)c(F)c4F)c4ccc([nH]4)c(-c4c(F)c(F)c(S[C@@H]5O[C@H](CO)[C@H](O)[C@H](O)[C@H]5O)c(F)c4F)c4nc(c(-c5c(F)c(F)c(S[C@@H]6O[C@H](CO)[C@H](O)[C@H](O)[C@H]6O)c(F)c5F)c5ccc([nH]5)c3-c3c(F)c(F)c(S[C@@H]5O[C@H](CO)[C@H](O)[C@H](O)[C@H]5O)c(F)c3F)C=C4)C2C1 (stereo partly drawn) [compound 16, 5,10,15,20-tetrakis[4-(β-D-galactopyranosylthio)-2,3,5,6-tetrafluorophenyl]-2,3-[methano(N-methyl)iminomethano]chlorin]			higher phototoxicity		
CN1CC2c3nc(c(-c4c(F)c(F)c(SC5OC(CO)C(O)C(O)C5O)c(F)c4F)c4ccc([n-]4)c(-c4c(F)c(F)c(SC5OC(CO)C(O)C(O)C5O)c(F)c4F)c4nc(c(-c5c(F)c(F)c(SC6OC(CO)C(O)C(O)C6O)c(F)c5F)c5ccc([n-]5)c3-c3c(F)c(F)c(SC5OC(CO)C(O)C(O)C5O)c(F)c3F)C=C4)C2C1.[Pd+2] [compound 9, {5,10,15,20-tetrakis[4-(β-D-glucopyranosylthio)-2,3,5,6-tetrafluorophenyl]-2,3-[methano(N-methyl)iminomethano]chlorinato}palladium (II)]		distinguished improvement of phototoxicity	higher phototoxicity	higher phototoxicity	phototoxicity compared with O-glycosylated chlorin derivative No. 15 [1, 5]: higher phototoxicity; phototoxicity compared with No. 6, 7 and No. 15 ([1]; drug concentration 0.5 μM): no difference in phototoxicity; phototoxicity compared with O-glycosylated chlorin derivative No. 15 ([1]; drug concentration 0.5 μM): not any differences in phototoxicity
OCC1OC(Sc2c(F)c(F)c(-c3c4nc(c(-c5c(F)c(F)c(SC6OC(CO)C(O)C(O)C6O)c(F)c5F)c5ccc([n-]5)c(-c5c(F)c(F)c(SC6OC(CO)C(O)C(O)C6O)c(F)c5F)c5nc(c(-c6c(F)c(F)c(SC7OC(CO)C(O)C(O)C7O)c(F)c6F)c6ccc3[n-]6)C=C5)C=C4)c(F)c2F)C(O)C(O)C1O.[Pd+2] [compound 7, {5,10,15,20-tetrakis[4-(β-D-glucopyranosylthio)-2,3,5,6-tetrafluorophenyl]porphyrinato}palladium (II), reference compound]		did not result in any improvement effect of phototoxicity	higher phototoxicity	higher phototoxicity	
CN1CC2c3nc(c(-c4c(F)c(F)c(F)c(F)c4F)c4ccc([n-]4)c(-c4c(F)c(F)c(F)c(F)c4F)c4nc(c(-c5c(F)c(F)c(F)c(F)c5F)c5ccc([n-]5)c3-c3c(F)c(F)c(F)c(F)c3F)C=C4)C2C1.[Pd+2] (centres unmarked) [compound 4, {5,10,15,20-tetrakis(pentafluorophenyl)-2,3-[methano(N-methyl)iminomethano]chlorinato}palladium]					phototoxicity of metal complex compared with compound No. 3 [1, 4]: phototoxicity increased
CC(=O)OCC1OC(Sc2c(F)c(F)c(-c3c4nc(c(-c5c(F)c(F)c(SC6OC(COC(C)=O)C(OC(C)=O)C(OC(C)=O)C6OC(C)=O)c(F)c5F)c5ccc([n-]5)c(-c5c(F)c(F)c(SC6OC(COC(C)=O)C(OC(C)=O)C(OC(C)=O)C6OC(C)=O)c(F)c5F)c5nc(c(-c6c(F)c(F)c(SC7OC(COC(C)=O)C(OC(C)=O)C(OC(C)=O)C7OC(C)=O)c(F)c6F)c6ccc3[n-]6)C=C5)C=C4)c(F)c2F)C(OC(C)=O)C(OC(C)=O)C1OC(C)=O.[Pd+2] [compound 11, {5,10,15,20-tetrakis[4-(2,3,4,6-tetra-O-acetyl-β-D-glucopyranosylthio)-2,3,5,6-tetrafluorophenyl]porphyrinato}palladium (II), reference compound]	phototoxicity was disappeared				
CC(=O)OC[C@H]1O[C@@H](Sc2c(F)c(F)c(-c3c4nc(c(-c5c(F)c(F)c(S[C@@H]6O[C@H](COC(C)=O)[C@@H](OC(C)=O)[C@H](OC(C)=O)[C@H]6OC(C)=O)c(F)c5F)c5ccc([nH]5)c(-c5c(F)c(F)c(S[C@@H]6O[C@H](COC(C)=O)[C@@H](OC(C)=O)[C@H](OC(C)=O)[C@H]6OC(C)=O)c(F)c5F)c5nc(c(-c6c(F)c(F)c(S[C@@H]7O[C@H](COC(C)=O)[C@@H](OC(C)=O)[C@H](OC(C)=O)[C@H]7OC(C)=O)c(F)c6F)c6ccc3[nH]6)C=C5)C=C4)c(F)c2F)[C@H](OC(C)=O)[C@@H](OC(C)=O)[C@@H]1OC(C)=O [compound 10, 5,10,15,20-tetrakis(4-(2,3,4,6-tetra-O-acetyl-β-D-glucopyranosylthio)-2,3,5,6-tetrafluorophenyl)porphyrin, reference compound]	phototoxicity was disappeared				
